Assay results from patent US12029730B2, “Pharmaceutical composition for preventing or treating cancer, containing N-1H-benzimidazol-2-yl-3-(1H-pyrrole-1-yl)benzamide as active ingredient” (KOREA INSTITUTE OF RADIOLOGICAL & MEDICAL SCIENCES, priority 2018, dated 2024).

Key:
MASTL kinase [1] = target: T1, MASTL kinase (Homo sapiens, UniProt Q96GX5); experiment: In vitro MASTL kinase analysis, immunoblotting for phosphorylated ENSA; type: biochemical; settings: western blot, 50 μM or more, FIG. 3
T1 construct: GST; purchased Thermo Fisher Scientific
T1 sequence (Q96GX5 1-879): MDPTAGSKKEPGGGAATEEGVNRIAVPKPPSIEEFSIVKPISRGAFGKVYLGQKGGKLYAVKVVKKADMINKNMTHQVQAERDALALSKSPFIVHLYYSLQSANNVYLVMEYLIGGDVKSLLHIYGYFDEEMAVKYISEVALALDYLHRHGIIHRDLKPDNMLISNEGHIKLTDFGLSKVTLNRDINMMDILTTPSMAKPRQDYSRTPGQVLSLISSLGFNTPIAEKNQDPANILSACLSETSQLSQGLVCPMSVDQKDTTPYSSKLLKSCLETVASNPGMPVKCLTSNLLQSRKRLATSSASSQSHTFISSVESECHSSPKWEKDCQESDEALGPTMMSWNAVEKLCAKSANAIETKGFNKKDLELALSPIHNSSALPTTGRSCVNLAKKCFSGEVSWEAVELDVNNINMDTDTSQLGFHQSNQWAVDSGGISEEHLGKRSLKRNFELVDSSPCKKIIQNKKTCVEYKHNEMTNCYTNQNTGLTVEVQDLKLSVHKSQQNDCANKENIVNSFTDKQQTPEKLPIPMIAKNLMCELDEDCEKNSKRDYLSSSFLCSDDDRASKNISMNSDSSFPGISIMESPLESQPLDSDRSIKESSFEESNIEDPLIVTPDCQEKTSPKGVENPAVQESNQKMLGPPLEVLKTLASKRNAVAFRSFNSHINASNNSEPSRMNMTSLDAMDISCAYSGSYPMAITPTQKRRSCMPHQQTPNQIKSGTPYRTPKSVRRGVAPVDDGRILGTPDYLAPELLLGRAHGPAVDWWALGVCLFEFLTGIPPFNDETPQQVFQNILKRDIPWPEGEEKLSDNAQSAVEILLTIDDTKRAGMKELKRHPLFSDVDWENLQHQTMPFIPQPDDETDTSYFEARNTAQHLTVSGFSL
Protocol: The MASTL kinase analysis in vitro was performed by reacting recombinant GST-tagged-MASTL (Thermo Fisher Scientific, Waltham, MA, USA) and his-tagged-ENSA (Sino Biological Inc., Beijing, China) proteins or immunoprecipitated proteins derived from MCF7 cells with the MASTL antibody (AP7147d; Abgent, CA, USA) in a kinase buffer consisting of 100 mM Tris-HCl (pH 7.5), 30 mM MgCl2, 2 mM DTT, 1 mM EDTA and 10 μM ultrapure ATP. The reaction proceeded, and then stopped by treating with SDS-loading buffer. In this experiment, the multi-AGC kinase inhibitor AT13148 was used as a positive control. The reaction was analyzed by performing immunoblotting for phosphorylated ENSA, and the results of the analysis were shown in FIG. 1B, and the results of the experiments confirming the cell survival and the kinase inhibitor activity were shown in FIG. 1C.
A protein kinase analysis was performed using the ADP-Glo™ kinase assay kit according to the standard protocol provided by Promega. […] Then, the reacted product was transferred to a 384-well white plate, and […] was read using a SpectraMax i3× Multi-Mode Microplate Reader (Molecular Devices), and GKI-1, N-(4-chlorophenyl)-3-(1H-pyrazol-4-yl)aniline and AT13148 were used as positive controls. The effect of inhibiting kinase activity of GKI-1 and MKI-1 and its IC50 confirmed through the reading result were shown in FIG. 2. […]

AKT = experiment: Western blotting of AKT and GSK-3 phosphorylation in MCF7 cells; type: cell-based, human; settings: western blot, FIG. 5
Protocol: (§1) 20 μg of protein was separated by SDS-PAGE electrophoresis and transferred to a PVDF membrane, and the following specific antibodies were used: rabbit polyclonal antibody MASTL (Abgent); phospho-ENSA (Ser67)/ARPP19 (Ser62) (#5240), ENSA (#11915S), cleaved PARP (Asp214) (#9541), AKT (#9272), phospho-AKT (ser473) (#9271), phospho-GSK-3α/β (Ser21/9) (#9331), phospho-p70S6K (The 288) (#9205) and phospho-Chk2 (Thr68) (#2661; Cell Signaling Technology, MA); p70S6K (sc-230; Santa Cruz Biotechnology, CA, USA), phospho-H3 (S10) (06-570, Merck, NJ); mouse monoclonal antibody caspase-2 (#2224S). In addition, mouse […] antibody β-actin (C4; Santa Cruz Biotechnology, CA, USA) was used as a loading control, it was washed with 1×PBS/0.1% Tween 20, and the binding protein was detected using HRP-binding secondary antibody and improved chemiluminescence detection system. The remaining conditions of Western blotting were the same as in Example 3, and the image of the band was obtained by Amersham Imager 600 system (GE Healthcare Life Science) or X-Ray film (AG, HealthCare, SC, USA) and it was shown in FIG. 5.

phospho-H3 (S10) = experiment: Western blotting of phosphorylated H3 in MCF7 cells; type: cell-based, human; settings: western blot, FIG. 5
Protocol: as §1

MASTL kinase (p-ENSA) = experiment: Western blotting of phosphorylated ENSA in MCF7 cells; type: cell-based, human; settings: western blot, FIG. 5
Protocol: as §1

MASTL kinase [2] = target: T1, MASTL kinase; experiment: ADP-Glo luminescence-kinase assay; type: biochemical; settings: 10 μM ATP, FIG. 2
Protocol: A protein kinase analysis was performed using the ADP-Glo™ kinase assay kit according to the standard protocol provided by Promega. […] A solution of a serial 2-fold dilution of the MASTL kinase inhibitor (GKI-1, MKI-1 or AT13148) was prepared and MASTL kinase […], ENSA 250 ng and 10 μM ATP was mixed in a kinase reaction buffer consisting of 100 mM Tris-HCl (pH 7.5), 30 mM MgCl2, 2 mM DTT, 1 mM EDTA and 10 μM ultra-pure ATP (Promega). Thereafter, the mixture was reacted at 30° C. for 30 minutes in an E-tube, and a kinase detection reagent was added thereto, followed by reacting for 30 minutes to detect the converted ATP. Then, the reacted product was transferred to a 384-well white plate, and […] was read using a SpectraMax i3× Multi-Mode Microplate Reader (Molecular Devices), and GKI-1, N-(4-chlorophenyl)-3-(1H-pyrazol-4-yl)aniline and AT13148 were used as positive controls. The effect of inhibiting kinase activity of GKI-1 and MKI-1 and its IC50 confirmed through the reading result were shown in FIG. 2. In addition, enzyme activity assay was performed under the same conditions except for the treatment of each concentration of MKI-1 (0, 6.25, 12.5, 25, 50 and 100 μM) through western blot, and it was shown in FIG. 3.

SMILES	ENSA phosphorylation (p-ENSA) in vitro (MASTL kinase [1])	activation of AKT / phosphorylated GSK-3 (AKT)	expression level of phosphorylated H3 (phospho-H3 (S10))	expression level of phosphorylated p-ENSA (MASTL kinase (p-ENSA))	IC50 (MASTL kinase [2]) [µM]
O=C(Nc1nc2ccccc2[nH]1)c1cccc(-n2cccc2)c1 [MKI-1, N-1H-benzimidazol-2-yl-3-(1H-pyrrol-1-yl) benzamide]	p-ENSA did not appear	did not regulate the activities of AKT and phosphorylated GSK-3P	increased the expression level of phosphorylated H3 in a dose-dependent manner	reduced the expression level of phosphorylated p-ENSA in MCF7 cells in a dose-dependent manner	11.6
Clc1ccc(Nc2cccc(-c3cn[nH]c3)c2)cc1 [GKI-1, N-(4-chlorophenyl)-3-(1H-pyrazol-4-yl)aniline, reference compound]					12
